The numbers were not newly measured in paper PMC10338470, “Phase 1 study of GSK3368715, a type I PRMT inhibitor, in patients with advanced solid tumors” (British Journal of Cancer, 2023), which cites them from elsewhere.

The subject of this data set is adenoid cystic carcinoma. On the set-up: method as in doi:10.1016/j.annonc.2020.08.651. The note with it: patients with adenoid cystic carcinoma ref [18]; cited from earlier work.

As to `Nc1nc2cc(CC[C@H]3C[C@@H](n4ccc5c(N)ncnc54)[C@H](O)[C@@H]3O)ccc2cc1Br` [JNJ64619178], the Partial response rate was 13%.
